Measurements taken from paper PMC3885398, “Evaluation of the Antitumor Effects of BPR1J-340, a Potent and Selective FLT3 Inhibitor, Alone or in Combination with an HDAC Inhibitor, Vorinostat, in AML Cancer” (PLoS ONE, 2014).

Legend:
MKN45 = experiment: Cell viability MTS assay; format: cell-based; settings: Homo sapiens, MKN-45; MKN45, non-leukemia; read-out: Proliferation GI50
Description: (§1) Cell viability was assessed with an MTS assay as carried out as the method described previously. Cells were seeded in 96-well plates at a density of 10,000 cells per well for 16 hours and then treated with vehicle or various concentrations of compound in medium. The change in viable cells was quantitated using the MTS method (Promega, Madison, WI, USA) according to the manufacturer's recommended protocol or by cell counting under a microscope. The GC50 value was defined as the amount of compound that caused a 50% reduction in cell viability in comparison with DMSO-treated (vehicle) control and was calculated using Prism version 4 software (Graph-Pad Software, Inc., San Diego, CA, USA). The data are presented as the mean ± S.D. from three independent experiments. Cell growth were measured by trypan blue dye exclusion method. Cells (1×10^4 mL^−1) were cultured in 12-well plates for 24 hours and then treated with different amounts of test compound and the same volumes of vehicle for 72 hours. The number of viable cells was counted by trypan blue dye staining using a hemocytometer at the indicated time point after drug treatment. The result was expressed as the mean ± S.D. from triplicate determinations.

HCC827 = experiment: Cell viability MTS assay; format: cell-based; settings: Homo sapiens; HCC827, non-leukemia; read-out: Proliferation GI50
Description: as §1

U937 = experiment: Cell viability MTS assay; format: cell-based; settings: Homo sapiens, U-937; U937, leukemia; read-out: Proliferation GI50
Description: as §1

Hep3B = experiment: Cell viability MTS assay; format: cell-based; settings: Homo sapiens, non-leukemia, read-out: Proliferation GI50
Description: as §1

CSK = molecular target: T1, CSK (Homo sapiens, UniProt P41240); experiment: Invitrogen SelectScreen kinase profiling; format: biochemical; settings: 100 nM
T1 construct: purchased Invitrogen SelectScreen
Description: (§2) The FLT3 and VEGFR1/2 Kinase-Glo kinase assays were performed as reported by our earlier study. The VEGFR3 activity analysis was conducted using the same protocol described in the VEGFR1/2 assay. The kinase inhibition profiling and inhibitory activity of FLT3-D835Y, CSF1R, and TRKA were determined by Invitrogen SelectScreen® kinase profiling service (Carlsbad, California, USA).
(§3) BPR1J-340, a urea-substituted 3-phenyl-1H-5-pyrazolylamine-based compound, was designed through chemical modification of sulfonamide series of derivatives (BPR1J-097 series) by a structure-activity relationship (SAR) study (Fig. 1), [32]. For kinase inhibition specificity screening, BPR1J-340 was tested against 59 protein kinases covering the major oncogenic kinases of human protein kinome. […] In addition, BPR1J-340 inhibited TRKA, which is associated with the growth and metastasis of breast cancers, with an IC50 value of 8 nM. Given the high similarity of the ATP binding pockets of FLT3 and the Aurora kinases, the inhibitory activity toward Aurora A and Aurora B were measured. […] Taken together, BPRJ-340 is a selective kinase inhibitor with in vitro activity against FLT3, VEGFR2, VEGFR3 and TRKA receptor tyrosine kinases.

TEK (Tie2) = molecular target: T2, TEK (Tie2) (Homo sapiens, UniProt Q02763); experiment: Invitrogen SelectScreen kinase profiling; format: biochemical; settings: 100 nM
T2 construct: purchased Invitrogen SelectScreen
Description: as §2, §3

KIT = molecular target: T3, KIT (Homo sapiens, UniProt P10721); experiment: Invitrogen SelectScreen kinase profiling; format: biochemical; settings: 100 nM
T3 construct: purchased Invitrogen SelectScreen
Description: as §2, §3

ERBB2 (HER2) = molecular target: T4, ERBB2 (HER2) (Homo sapiens, UniProt P04626); experiment: Invitrogen SelectScreen kinase profiling; format: biochemical; settings: 100 nM
T4 construct: purchased Invitrogen SelectScreen
Description: as §2, §3

TYRO3 (RSE) = molecular target: T5, TYRO3 (RSE) (Homo sapiens, UniProt Q06418); experiment: Invitrogen SelectScreen kinase profiling; format: biochemical; settings: 100 nM
T5 construct: purchased Invitrogen SelectScreen
Description: as §2, §3

IRAK4 = molecular target: T6, IRAK4 (Homo sapiens, UniProt Q9NWZ3); experiment: Invitrogen SelectScreen kinase profiling; format: biochemical; settings: 100 nM
T6 construct: purchased Invitrogen SelectScreen
Description: as §2, §3

CDK2/cyclin A = molecular target: T7, CDK2/cyclin A (Homo sapiens, UniProt P24941); experiment: Invitrogen SelectScreen kinase profiling; format: biochemical; settings: 100 nM
T7 construct: purchased Invitrogen SelectScreen
Description: as §2, §3

PDGFRB (PDGFR beta) = molecular target: T8, PDGFRB (PDGFR beta) (Homo sapiens, UniProt P09619); experiment: Invitrogen SelectScreen kinase profiling; format: biochemical; settings: 100 nM
T8 construct: purchased Invitrogen SelectScreen
Description: as §2, §3

BTK = molecular target: T9, BTK (Homo sapiens, UniProt Q06187); experiment: Invitrogen SelectScreen kinase profiling; format: biochemical; settings: 100 nM
T9 construct: purchased Invitrogen SelectScreen
Description: as §2, §3

FRAP1 (mTOR) = molecular target: T10, FRAP1 (mTOR) (Homo sapiens, UniProt P42345); experiment: Invitrogen SelectScreen kinase profiling; format: biochemical; settings: 100 nM
T10 construct: purchased Invitrogen SelectScreen
Description: as §2, §3

PLK1 = molecular target: T11, PLK1 (Homo sapiens, UniProt P53350); experiment: Invitrogen SelectScreen kinase profiling; format: biochemical; settings: 100 nM
T11 construct: purchased Invitrogen SelectScreen
Description: as §2, §3

AKT1 (PKB alpha) = molecular target: T12, AKT1 (PKB alpha) (Homo sapiens, UniProt P31749); experiment: Invitrogen SelectScreen kinase profiling; format: biochemical; settings: 100 nM
T12 construct: purchased Invitrogen SelectScreen
Description: as §2, §3

BRAF = molecular target: T13, BRAF (Homo sapiens, UniProt P15056); experiment: Invitrogen SelectScreen kinase profiling; format: biochemical; settings: 100 nM
T13 construct: purchased Invitrogen SelectScreen
Description: as §2, §3

PDGFRA (PDGFR alpha) = molecular target: T14, PDGFRA (PDGFR alpha) (Homo sapiens, UniProt P16234); experiment: Invitrogen SelectScreen kinase profiling; format: biochemical; settings: 100 nM
T14 construct: purchased Invitrogen SelectScreen
Description: as §2, §3

JAK1 = molecular target: T15, JAK1 (Homo sapiens, UniProt P23458); experiment: Invitrogen SelectScreen kinase profiling; format: biochemical; settings: 100 nM
T15 construct: purchased Invitrogen SelectScreen
Description: as §2, §3

RET = molecular target: T16, RET (Homo sapiens, UniProt P07949); experiment: Invitrogen SelectScreen kinase profiling; format: biochemical; settings: 100 nM
T16 construct: purchased Invitrogen SelectScreen
Description: as §2, §3

CHEK2 (CHK2) = molecular target: T17, CHEK2 (CHK2) (Homo sapiens, UniProt O96017); experiment: Invitrogen SelectScreen kinase profiling; format: biochemical; settings: 100 nM
T17 construct: purchased Invitrogen SelectScreen
Description: as §2, §3

JAK2 = molecular target: T18, JAK2 (Homo sapiens, UniProt O60674); experiment: Invitrogen SelectScreen kinase profiling; format: biochemical; settings: 100 nM
T18 construct: purchased Invitrogen SelectScreen
Description: as §2, §3

SGK2 = molecular target: T19, SGK2 (Homo sapiens, UniProt Q9HBY8); experiment: Invitrogen SelectScreen kinase profiling; format: biochemical; settings: 100 nM
T19 construct: purchased Invitrogen SelectScreen
Description: as §2, §3

AURKC (Aurora C) = molecular target: T20, AURKC (Aurora C) (Homo sapiens, UniProt Q9UQB9); experiment: Invitrogen SelectScreen kinase profiling; format: biochemical; settings: 100 nM
T20 construct: purchased Invitrogen SelectScreen
Description: as §2, §3

MST1R (RON) = molecular target: T21, MST1R (RON) (Homo sapiens, UniProt Q04912); experiment: Invitrogen SelectScreen kinase profiling; format: biochemical; settings: 100 nM
T21 construct: purchased Invitrogen SelectScreen
Description: as §2, §3

RPS6KA5 (MSK1) = molecular target: T22, RPS6KA5 (MSK1) (Homo sapiens, UniProt O75582); experiment: Invitrogen SelectScreen kinase profiling; format: biochemical; settings: 100 nM
T22 construct: purchased Invitrogen SelectScreen
Description: as §2, §3

MAPK8 (JNK1) = molecular target: T23, MAPK8 (JNK1) (Homo sapiens, UniProt P45983); experiment: Invitrogen SelectScreen kinase profiling; format: biochemical; settings: 100 nM
T23 construct: purchased Invitrogen SelectScreen
Description: as §2, §3

RPS6KA3 (RSK2) = molecular target: T24, RPS6KA3 (RSK2) (Homo sapiens, UniProt P51812); experiment: Invitrogen SelectScreen kinase profiling; format: biochemical; settings: 100 nM
T24 construct: purchased Invitrogen SelectScreen
Description: as §2, §3

FLT3 = molecular target: T25, FLT3 (Homo sapiens, UniProt P36888); experiment: Invitrogen SelectScreen kinase profiling; format: biochemical; settings: 100 nM
T25 construct: purchased Invitrogen SelectScreen
Description: as §2, §3

T20 sequence (Q9UQB9 whole entry): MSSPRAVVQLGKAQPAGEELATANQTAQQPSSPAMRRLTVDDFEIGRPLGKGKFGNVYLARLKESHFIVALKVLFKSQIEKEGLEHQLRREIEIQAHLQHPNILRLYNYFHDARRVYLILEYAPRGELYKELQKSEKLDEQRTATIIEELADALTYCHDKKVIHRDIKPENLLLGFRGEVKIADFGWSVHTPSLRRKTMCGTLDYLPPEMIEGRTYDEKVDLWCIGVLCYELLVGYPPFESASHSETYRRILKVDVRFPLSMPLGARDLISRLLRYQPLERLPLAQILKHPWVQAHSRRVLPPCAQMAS
T21 sequence (Q04912 25-1400): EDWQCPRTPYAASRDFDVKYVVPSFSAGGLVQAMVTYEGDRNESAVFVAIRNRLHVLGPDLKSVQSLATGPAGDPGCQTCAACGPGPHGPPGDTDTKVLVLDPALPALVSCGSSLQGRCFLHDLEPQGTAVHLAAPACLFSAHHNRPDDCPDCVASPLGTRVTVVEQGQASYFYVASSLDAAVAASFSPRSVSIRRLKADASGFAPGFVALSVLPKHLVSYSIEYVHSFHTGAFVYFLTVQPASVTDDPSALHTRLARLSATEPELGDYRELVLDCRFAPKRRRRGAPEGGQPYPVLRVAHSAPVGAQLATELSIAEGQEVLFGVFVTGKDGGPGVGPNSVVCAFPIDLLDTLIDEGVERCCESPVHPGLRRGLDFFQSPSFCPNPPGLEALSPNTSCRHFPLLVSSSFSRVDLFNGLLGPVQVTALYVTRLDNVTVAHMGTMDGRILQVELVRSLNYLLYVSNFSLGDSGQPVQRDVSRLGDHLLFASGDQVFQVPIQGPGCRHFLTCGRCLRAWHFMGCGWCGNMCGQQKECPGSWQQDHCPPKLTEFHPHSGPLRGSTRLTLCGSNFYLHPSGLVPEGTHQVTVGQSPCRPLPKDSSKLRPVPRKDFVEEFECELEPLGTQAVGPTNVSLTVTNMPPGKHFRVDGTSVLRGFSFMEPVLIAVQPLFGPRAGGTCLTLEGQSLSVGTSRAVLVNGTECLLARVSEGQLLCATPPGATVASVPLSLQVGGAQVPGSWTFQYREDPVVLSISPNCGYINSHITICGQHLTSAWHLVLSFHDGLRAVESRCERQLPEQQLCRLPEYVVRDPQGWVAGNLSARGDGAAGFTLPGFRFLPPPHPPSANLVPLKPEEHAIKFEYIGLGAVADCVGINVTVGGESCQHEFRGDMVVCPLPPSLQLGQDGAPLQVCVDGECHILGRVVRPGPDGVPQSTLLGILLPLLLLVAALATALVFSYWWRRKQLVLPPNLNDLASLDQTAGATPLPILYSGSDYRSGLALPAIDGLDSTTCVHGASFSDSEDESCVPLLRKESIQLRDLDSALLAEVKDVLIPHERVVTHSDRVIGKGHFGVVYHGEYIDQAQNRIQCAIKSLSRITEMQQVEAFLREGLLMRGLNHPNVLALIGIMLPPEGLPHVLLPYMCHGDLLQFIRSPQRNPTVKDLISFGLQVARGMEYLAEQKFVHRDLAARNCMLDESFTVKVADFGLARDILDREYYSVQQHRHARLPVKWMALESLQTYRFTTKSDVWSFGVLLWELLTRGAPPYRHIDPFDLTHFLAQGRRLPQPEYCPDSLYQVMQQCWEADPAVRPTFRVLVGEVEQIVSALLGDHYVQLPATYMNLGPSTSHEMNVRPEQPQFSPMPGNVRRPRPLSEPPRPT
T15 sequence (P23458 whole entry): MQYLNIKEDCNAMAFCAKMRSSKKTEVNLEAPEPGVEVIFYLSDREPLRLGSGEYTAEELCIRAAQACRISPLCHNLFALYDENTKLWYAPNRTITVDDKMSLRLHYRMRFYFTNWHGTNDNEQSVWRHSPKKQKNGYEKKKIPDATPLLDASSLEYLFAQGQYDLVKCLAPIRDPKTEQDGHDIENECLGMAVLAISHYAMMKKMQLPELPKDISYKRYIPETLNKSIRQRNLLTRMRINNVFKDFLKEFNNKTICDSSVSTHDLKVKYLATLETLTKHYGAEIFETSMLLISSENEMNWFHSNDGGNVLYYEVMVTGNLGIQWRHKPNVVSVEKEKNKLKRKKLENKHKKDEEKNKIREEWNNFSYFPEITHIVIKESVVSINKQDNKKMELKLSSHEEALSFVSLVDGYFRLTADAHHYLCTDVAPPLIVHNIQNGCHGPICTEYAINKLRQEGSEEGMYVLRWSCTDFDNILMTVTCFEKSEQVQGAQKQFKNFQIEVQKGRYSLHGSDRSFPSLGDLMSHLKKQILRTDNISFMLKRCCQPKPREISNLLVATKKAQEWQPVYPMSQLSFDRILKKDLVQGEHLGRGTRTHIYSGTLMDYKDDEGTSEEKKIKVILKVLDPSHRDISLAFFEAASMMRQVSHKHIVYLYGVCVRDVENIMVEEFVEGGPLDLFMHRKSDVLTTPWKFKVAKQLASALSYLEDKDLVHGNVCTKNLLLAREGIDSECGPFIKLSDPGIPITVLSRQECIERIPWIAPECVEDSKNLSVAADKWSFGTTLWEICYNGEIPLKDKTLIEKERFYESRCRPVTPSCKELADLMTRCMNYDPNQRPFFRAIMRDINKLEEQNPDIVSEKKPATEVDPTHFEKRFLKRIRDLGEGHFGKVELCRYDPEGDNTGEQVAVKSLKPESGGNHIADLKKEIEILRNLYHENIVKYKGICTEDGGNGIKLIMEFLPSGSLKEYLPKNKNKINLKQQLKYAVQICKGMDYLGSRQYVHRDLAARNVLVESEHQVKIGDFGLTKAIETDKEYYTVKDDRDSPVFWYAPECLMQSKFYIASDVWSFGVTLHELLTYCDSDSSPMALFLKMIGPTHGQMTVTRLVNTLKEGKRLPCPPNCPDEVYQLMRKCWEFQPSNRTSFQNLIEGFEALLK
T12 sequence (P31749 whole entry): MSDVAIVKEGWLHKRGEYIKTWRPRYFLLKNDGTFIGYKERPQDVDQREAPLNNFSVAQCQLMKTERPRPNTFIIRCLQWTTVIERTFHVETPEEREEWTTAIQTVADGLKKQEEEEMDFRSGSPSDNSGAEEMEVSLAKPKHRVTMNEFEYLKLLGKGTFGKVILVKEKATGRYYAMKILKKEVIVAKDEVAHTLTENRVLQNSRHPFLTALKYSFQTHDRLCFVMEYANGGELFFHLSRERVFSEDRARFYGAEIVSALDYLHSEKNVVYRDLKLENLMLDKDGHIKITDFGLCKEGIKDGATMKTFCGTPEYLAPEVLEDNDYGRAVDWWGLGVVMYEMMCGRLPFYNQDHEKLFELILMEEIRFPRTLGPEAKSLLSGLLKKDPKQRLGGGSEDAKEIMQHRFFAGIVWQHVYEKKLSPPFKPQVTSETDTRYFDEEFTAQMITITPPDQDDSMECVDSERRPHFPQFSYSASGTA
T6 sequence (Q9NWZ3 whole entry): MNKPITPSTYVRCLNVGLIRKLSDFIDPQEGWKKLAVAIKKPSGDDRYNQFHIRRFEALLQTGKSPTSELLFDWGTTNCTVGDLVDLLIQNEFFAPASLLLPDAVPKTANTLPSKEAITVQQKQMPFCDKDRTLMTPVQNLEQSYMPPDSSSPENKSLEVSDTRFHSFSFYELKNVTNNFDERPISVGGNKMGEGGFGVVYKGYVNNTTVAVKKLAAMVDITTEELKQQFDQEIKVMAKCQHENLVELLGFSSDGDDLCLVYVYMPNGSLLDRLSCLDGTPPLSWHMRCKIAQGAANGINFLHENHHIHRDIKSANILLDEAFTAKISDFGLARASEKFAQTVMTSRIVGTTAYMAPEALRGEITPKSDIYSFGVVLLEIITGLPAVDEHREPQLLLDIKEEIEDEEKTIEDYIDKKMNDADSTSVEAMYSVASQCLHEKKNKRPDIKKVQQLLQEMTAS
T11 sequence (P53350 whole entry): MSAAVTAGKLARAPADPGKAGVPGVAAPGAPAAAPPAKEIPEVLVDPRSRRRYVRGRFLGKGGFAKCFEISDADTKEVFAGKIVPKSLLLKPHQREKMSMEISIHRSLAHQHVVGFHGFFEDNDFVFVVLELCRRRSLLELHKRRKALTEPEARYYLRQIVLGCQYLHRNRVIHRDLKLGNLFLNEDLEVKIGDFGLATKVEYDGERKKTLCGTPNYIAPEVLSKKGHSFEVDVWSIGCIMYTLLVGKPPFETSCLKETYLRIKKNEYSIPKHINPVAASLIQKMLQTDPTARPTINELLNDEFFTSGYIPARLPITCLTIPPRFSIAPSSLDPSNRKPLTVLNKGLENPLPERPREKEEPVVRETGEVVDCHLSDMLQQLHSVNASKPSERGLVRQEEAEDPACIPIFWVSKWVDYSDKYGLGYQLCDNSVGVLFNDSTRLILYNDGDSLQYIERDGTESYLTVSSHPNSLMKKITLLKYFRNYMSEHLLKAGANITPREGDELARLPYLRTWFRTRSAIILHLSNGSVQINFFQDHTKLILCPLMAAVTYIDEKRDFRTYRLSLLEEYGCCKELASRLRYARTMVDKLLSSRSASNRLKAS
T17 sequence (O96017 whole entry): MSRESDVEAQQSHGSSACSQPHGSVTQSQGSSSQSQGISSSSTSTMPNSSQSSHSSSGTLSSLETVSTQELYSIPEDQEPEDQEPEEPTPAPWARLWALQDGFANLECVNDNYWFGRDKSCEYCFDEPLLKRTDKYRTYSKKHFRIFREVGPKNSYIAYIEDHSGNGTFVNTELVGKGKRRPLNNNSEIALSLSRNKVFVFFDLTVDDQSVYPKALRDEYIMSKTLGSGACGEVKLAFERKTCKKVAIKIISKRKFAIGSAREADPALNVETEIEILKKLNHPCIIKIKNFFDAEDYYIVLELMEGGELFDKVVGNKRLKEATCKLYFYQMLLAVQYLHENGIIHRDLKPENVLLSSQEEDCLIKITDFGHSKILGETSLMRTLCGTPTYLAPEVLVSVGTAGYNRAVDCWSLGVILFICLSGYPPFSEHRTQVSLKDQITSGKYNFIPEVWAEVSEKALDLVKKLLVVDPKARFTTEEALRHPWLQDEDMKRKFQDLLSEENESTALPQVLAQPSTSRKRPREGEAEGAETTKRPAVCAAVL

CCc1cc(NC(=O)NCc2ccc(-c3cc(NC(=O)c4ccc(CN5CCN(C)CC5)cc4)[nH]n3)cc2)no1 [BPR1J-340, N1-(3-4-[([(5-ethyl-3-isoxazolyl)amino]carbonylamino)methyl]phenyl-1H-5-pyrazolyl)-4-[(4-methylpiperazino)methyl]benzamide]
GI50 (MKN45): 3.58 µM
GI50 (HCC827): 2.47 µM
GI50 (U937): 2.4 µM
GI50 (Hep3B): 8.31 µM
inhibition at 0.1 µM (CSK): 3%
inhibition at 0.1 µM (TEK (Tie2)): 42%
inhibition at 0.1 µM (KIT): 66%
inhibition at 0.1 µM (ERBB2 (HER2)): 11%
inhibition at 0.1 µM (TYRO3 (RSE)): 15%
inhibition at 0.1 µM (IRAK4): 4%
inhibition at 0.1 µM (CDK2/cyclin A): 5%
inhibition at 0.1 µM (PDGFRB (PDGFR beta)): 39%
inhibition at 0.1 µM (BTK): 7%
inhibition at 0.1 µM (FRAP1 (mTOR)): -8%
inhibition at 0.1 µM (PLK1): 4%
inhibition at 0.1 µM (AKT1 (PKB alpha)): -2%
inhibition at 0.1 µM (BRAF): 5%
inhibition at 0.1 µM (PDGFRA (PDGFR alpha)): 38%
inhibition at 0.1 µM (JAK1): -3%
inhibition at 0.1 µM (RET): 49%
inhibition at 0.1 µM (CHEK2 (CHK2)): -6%
inhibition at 0.1 µM (JAK2): 9%
inhibition at 0.1 µM (SGK2): 22%
inhibition at 0.1 µM (AURKC (Aurora C)): 19%
inhibition at 0.1 µM (MST1R (RON)): 6%
inhibition at 0.1 µM (RPS6KA5 (MSK1)): 16%
inhibition at 0.1 µM (MAPK8 (JNK1)): 14%
inhibition at 0.1 µM (RPS6KA3 (RSK2)): 0%
inhibition at 0.1 µM (FLT3): 97%
